Experiment [1] concerns p53 altered MMTV-Neu cells. As to the kind of experiment: Chemokine induction by doxorubicin in MMTV-Neu cells. It counts as cell-based, mouse. An excerpt:
Doxorubicin induces T cell recruiting chemokines in p53 altered MMTV-Neu cells. FIG. 49.

Experiment [2] deals with TP53 mutant mouse breast cancer cells lines. Kind of experiment: Cytokine expression after doxorubicin in mouse breast cancer cell lines. It counts as cell-based.
For experiment [3], the system named is melanoma cell lines. As to the kind of experiment: Flow cytometry of melanoma cell lines under basal and IFNγ-stimulated conditions. It counts as cell-based, human. Here is the method: (§1) FIGS. 3A-F show characterization of MHC-II(+) melanoma cell lines. Melanoma cell lines were treated with IFNy for 24 h before collection and live-cell staining and flow cytometry analysis for (A) MHC-I (HLA-A/B/C), (B) MHC-II (HLA-DR), and (C) PD-L1. Bars represent mean ±S.E.M. for at least three experiments (D) Representative flow plots from (C). (E) Western blot analysis of melanoma cell lines after 24 or 48 h of IFNy stimulation. (F) Phosphorylation of STAT1 (top row) and STATS (bottom row) in melanoma cell lines at 15 min after IFNy stimulation. Histograms were colored according to the arcsinh transformed ratio or MFI medians relative to the table minimum value.
FIGS. 4A-D show graphs illustrating mean expression levels of MHC-I, MHC-II, and PD-L1 at baseline and after IFNy stimulation. Melanoma cell lines were treated with 100 ng IFNy for 24 hr (shown as percentage positive in FIGS. 2A-C) prior to harvest and live-cell staining and flow cytometry analysis for (A) MHC-FHLA-A/B/C, (B) MHC-II/HLA-DR, and (C) PD-L1. Bars represent mean fluorescence intensity ±SEM for 3 experiments. (D) Histograms of HLA-DR surface expression over an extended (24-72 hr) IFNy treatment, as assessed by flow cytometry.
Cell surface expression mirrored mRNA expression patterns; MHC-I (HLA-A/B/C) was expressed ubiquitously among all cell lines under both basal and stimulated conditions, while MHC-II (HLA-DR) was present only on the intermediate/Ib (SKMEL5 and SKMEL28) and high/Ia cell lines (WM115 and A375; FIGS. 3A-C and 4A-D). […] The high (Ia) WM115 cell line was essentially 100% positive for HLA-DR at both basal and stimulated conditions.
Standard Flow Cytometry. Flow cytometry was performed using the following antibodies: HLA-DR/PE-Cy7 (Biolegend, clone L243. 1:20). CD274/PD-L1/APC (Biolegend, clone 29E.2A3, 1:200) and HLA-A/B/C-Alexa Fluor488 (1:100, Biolegend, clone W6/32) mouse MHC-II (I-A/I-E 1:20 Biolegend, clone M5/114.15.2). DAPI was used as a viability dye. Samples were analyzed on an Aria III laser system (BD Biosciences)
Cell and tumor culture. […]

Experiment [4] has as its system melanoma cell lines. Kind of experiment: Western blot of melanoma cell lines after IFNγ stimulation. The experiment is classed as cell-based, human. The method, then: as §1
Immunoblotting was performed as previously described^32 Briefly, cells were washed in cold phosphate-buffered saline, collected and lysed in 1×RIPA buffer (50 mM Tris (pH 7.4), 1% NP-40, 150 mM NaCl, 1 mM EDTA, 0.1% SDS, 0.25% sodium deoxycholate, 5 mM NaF, 5 mM Na3VO4, 10% glycerol, […] phenylmethyl-sulphonylfluoride and protease inhibitors) for 30 min on ice. Lysates were sonicated for 2-3 s to shear DNA and cleared by centrifugation at 13,200 r.p.m. for 15 min. Protein concentrations of the lysates were determined by BCA assay (Bio-Rad, Hercules, Calif.). Samples were separated by SDS-PAGE and transferred to nitrocellulose membrane. […]

For experiment [5], the system named is melanoma cell lines. Kind of experiment: Phospho-flow cytometry of melanoma cell lines after IFNγ stimulation. It counts as cell-based, human. Conditions: 15 min IFNγ; MHC-II(−) cell lines. The method, then: as §1
Phospho-flow cytometry. Melanoma cell lines were treated with Accutase™ (EMD Millipore, # SCR005) for 10 minutes at 37° C. to dissociate them from the plate. Dissociated cell lines were rested at 37° C. in a CO2 incubator for 30 minutes prior to stimulation. After resting, cells were stimulated by adding IFNy (Cell Signaling) at a final concentration of 100 ng/mL. During signaling, cells were kept in a 37° C. CO2 incubator. After 15 minutes of signaling, cells were fixed for 10 minutes at room temperature with a final concentration of 1.6% paraformaldehyde (Electron Microscopy Services). […] Samples were analyzed on a LSRII system (BD Biosciences).

For experiment [6], the system named is melanoma PDX tissue slices. As to the kind of experiment: Ex vivo organotypic culture of PDX tumor slices with or without IFNγ. The settings on record: PT1 and PT2 PDX tissue slices, 24-48 h. It counts as cell-based, human. An excerpt: FIGS. 6A-D show Ex vivo culture of tumors derived from anti-PD-1-responding and non-responding patients identifies heterogeneity in interferon response. (A) Patient tumor blocks stained for HLA-DR (brown) and SOX10 (pink) at low (scale bar, 500 um) and high magnification (scale bar, […]); PT1: anti-PD-1 non-responder and PT2: anti-PD-1 responder. (B) Experimental schema. (C) Schema and images of PDX tissue sections (ex vivo organotypic culture). (D) Western blot analysis of tissue sections cultured in the presence or absence of IFNy for 24-48 h.
To test this hypothesis, patient-derived xenograft (PDX) models were utilized from the tumor resections of two melanoma patients who subsequently received anti-PD1 therapy; patient 1 (PT1; non-responder, 0% HLA-DR-positive, class II/III) and patient 2 (PT2; partial responder, heterogeneous 15% HLA-DR-positive, class Ib) (FIG. 6A). […] The resected tumors from PT1 and PT2 were serially transplanted to athymic nu/nu mice, which are highly deficient in functional T cells, ruling out a possible source of IFNγ (FIG. 6B). […] Thus, HLA-DR may be a marker of IFNγ activity in the microenvironment of some (but not all) tumors.
Cell and tumor culture. SKMEL-28 and WM115 cell lines were obtained from Dr. Kimberly Dahlman (Vanderbilt University), CHL-1 and HMCB melanoma cell lines were obtained from the laboratory of William Pao (Vanderbilt University). […]

Entries after “also recorded” stand apart in the source; their conditions may differ.

With `COc1cccc2c1C(=O)c1c(O)c3c(c(O)c1C2=O)C[C@@](O)(C(=O)CO)C[C@@H]3O[C@H]1C[C@H](N)[C@H](O)[C@H](C)O1` [Doxorubicin], the “T cell recruiting chemokines” value in experiment [1] is reported as “induces”. Moreover, the cytokine expression entry in experiment [2] is on record as “induce cytokine expression”.

Regarding “IFNγ: recombinant human IFNγ (R&D Systems), stimulation at 100 ng/mL”, the HLA-DR expression entry in experiment [3] (CHL-1 or HMCB, 72 hrs of IFNγ treatment) was “No significant increase”; in experiment [3] (SKMEL28 (intermediate/Ib)), “potently induced”. For the same molecule, the PD-L1 expression entry in experiment [3] (all cell lines tested) is “potently induced; also recorded: significantly upregulated”. In addition, the CIITA expression entry in experiment [4] (24 or 48 h IFNγ) is “only induced in HLA-DR+ Ia/Ib cells”. The STAT1 activation entry in experiment [4] (all cell lines) was “robustly activated”. Moreover, the STATS activation entry in experiment [5] is “preferentially activated”. The HLA-DR upregulation result in experiment [6] is recorded as “only the PT2 PDX model (anti-PD-1 responder) upregulated HLA-DR”.

Values taken from patent US20190284640A1, “Methods and Systems for Predicting Response to Immunotherapies for Treatment of Cancer” (Vanderbilt University, priority 2018, published 2019).
